Earlier results, collected in patent publication US20070202162A1, “EXTENDED RELEASE PHARMACEUTICAL COMPOSITIONS” (priority 2006, published 2007).
Structures can show the parent of a compound that is named as a salt.

Settings: in water and ethanol

In the case of `CC(C)NCC(O)COc1cccc2ccccc12` (stereo not shown) [Propranolol hydrochloride, 1-(Isopropylamino)-3-(1-naphthyloxy)-2-propanol], the solubility is listed as “readily soluble in water and ethanol”.
